Experimental data taken from patent US12102615B2 (THE TEXAS A&M UNIVERSITY SYSTEM, priority 2018, dated 2024).
Numbered stars: 1 amine (or outer) side, 2 acyl side, 3 side chain; on linkers, the order of the positions; unused ones are H or OH. Square brackets hold non-standard residues; d marks the D form. Peptide text beside a SMILES is read from it. dTyr(βR-OH) = N[C@@H](C(=O)O)[C@H](O)c1ccc(O)cc1; X1 = CCCCCCCCCCCCNCC[C@H](CC(=O)[*:2])N[*:1]; Asn(3S-OH) = NC(=O)[C@@H](O)[C@H](N)C(=O)O; dDab = NCC[C@@H](N)C(=O)O

Key:
[1] = tested on: Candida glabrata ATCC 2001; test: Minimum inhibitory concentration (MIC) assay, modified CLSI M27-A3; assay type: cell-based; details: 24 hours, 35° C.
Method: (§1) MIC assays were performed in duplicate as previously described following a modified version of the CLSI M27-A3 methods.
(§2) Minimum inhibitory concentration (MIC) susceptibility testing was performed following a modified version, as previously reported, of the CLSI M27-A3 methods for the susceptibility testing of yeasts. Incubation temperature was 35° C. and the inoculum size was 0.5-2.5×10^3 colony-forming units (CFU)/mL for yeasts. MICs were performed to determine the bioactivity of each new OF-Δxyl analogue (Table 3).

[2] = tested on: S. cerevisiae DGY6 haploid BY4741; assay type: cell-based; details: Saccharomyces cerevisiae DGY6 haploid BY4741; 24 hours, 35° C.
Method: as §1, §2

[3] = tested on: Candida albicans ATCC 3147; assay type: cell-based; details: 24 hours, 35° C., listed as dihydrosphingosine
Method: as §1, §2

[4] = target: T1, actin (Oryctolagus cuniculus, UniProt P68135); test: Pyrene labeled actin polymerization assay; assay type: biochemical; details: 5 μM; approximately one hour after incubation in the polymerization buffer
T1 construct: purchased Cytoskeleton, Inc. (Denver, CO) BK003
Method: (§3) Actin polymerization and depolymerization assays were performed using the Actin polymerization biochem kit (#BK003; Cytoskeleton, Inc. Denver, CO) following the manufacturer's instructions with some modifications. Briefly, for the polymerization assay, G-actin stock solution was made at 0.2 mg/mL instead of 0.4 mg/mL. For the depolymerization assay, F-actin stock solution was diluted 9-fold instead of 5-fold. […] The experiments were done in duplicate.

[5] = target: T2, F-actin (Oryctolagus cuniculus, UniProt P68135); test: Pyrene labeled actin depolymerization assay; assay type: biochemical; set-up: purchased Cytoskeleton, Inc. (Denver, CO) BK003; details: 5 μM
Method: as §3

[6] = target: T2, F-actin; test: Actin co-sedimentation assay; assay type: binding, rabbit; set-up: Purified rabbit skeletal muscle filamentous actin (AKF99); purchased Cytoskeleton Inc. (Denver, CO) AKF99; host or cells: rabbit skeletal muscle

| Compound | MIC [1] [µg/mL] | MIC [2] [µg/mL] | MIC [3] [µg/mL] | pyrene fluorescence reading, plateau in polymerization buffer [4] | effect on polymerization or depolymerization of actin [5] | pyrene fluorescent reading following incubation in depolymerization buffer ([5]; no drug control at 2,500 AU) | Kd [6] [nM] | fold lower saturation of binding ratio than native occidiofungin ([6]; versus native occidiofungin) [fold] | fold lower binding affinity to actin than native compound ([6]; versus native occidiofungin) [fold] |
| --- | --- | --- | --- | --- | --- | --- | --- | --- | --- |
| CCCCCCCCCCCCCCCC(O)C(CO)NCC[C@@H]1CC(=O)N[C@H](CO)C(=O)N[C@H]([C@H](O)c2ccc(O)cc2)C(=O)N[C@H](CCN)C(=O)NCC(=O)N[C@@H](CC(N)=O)C(=O)N[C@@H](CO)C(=O)N[C@@H]([C@H](O)C(N)=O)C(=O)N1 (mixture of isomers) | 8 | 2 | 16 | ~21,000 AU | did not interfere with polymerization or depolymerization of actin | 2,500 AU | 25 | 13.5 |  |
| CCCCCCCCCCCCNCC[C@@H]1CC(=O)N[C@H](CO)C(=O)N[C@H]([C@H](O)c2ccc(O)cc2)C(=O)N[C@H](CCN)C(=O)NCC(=O)N[C@@H](CC(N)=O)C(=O)N[C@@H](CO)C(=O)N[C@@H]([C@H](O)C(N)=O)C(=O)N1 [Dodecylamine containing OF-Δxyl analogue] (cyclo(GNS[Asn(3S-OH)][X1][dS][dTyr(βR-OH)][dDab])) |  | >4 |  |  |  |  | 4200 |  | ~4 |
